Experimental data published in patent US10738056B2 (Aduro BioTech, Inc., priority 2017, dated 2020).

Experiments:
[1] = molecular target: Human cGAS amino acids 155-522 (Homo sapiens (Human), UniProt Q8N884); assay: cGAS biochemical activity assay (ATP remaining, Kinase-Glo Max luminescence); details: human cGAS 155-522, ATP remaining (Kinase-Glo Max); read-out: cGAS IC50
[2] = test system: cGAS/STING pathway in THP1 cells; assay: THP1 cell-based cGAS/STING pathway activity assay (IRF-3-linked luciferase reporter); details: Homo sapiens, THP-1
How it was run: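 THP1 cells carrying an IRF-3-driven luciferase reporter were read across a range of compound concentrations, and IC50 values were derived from these concentration responses; the assay upper limit was 100 μM.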

Chain of Human cGAS amino acids 155-522 (Q8N884 157-522): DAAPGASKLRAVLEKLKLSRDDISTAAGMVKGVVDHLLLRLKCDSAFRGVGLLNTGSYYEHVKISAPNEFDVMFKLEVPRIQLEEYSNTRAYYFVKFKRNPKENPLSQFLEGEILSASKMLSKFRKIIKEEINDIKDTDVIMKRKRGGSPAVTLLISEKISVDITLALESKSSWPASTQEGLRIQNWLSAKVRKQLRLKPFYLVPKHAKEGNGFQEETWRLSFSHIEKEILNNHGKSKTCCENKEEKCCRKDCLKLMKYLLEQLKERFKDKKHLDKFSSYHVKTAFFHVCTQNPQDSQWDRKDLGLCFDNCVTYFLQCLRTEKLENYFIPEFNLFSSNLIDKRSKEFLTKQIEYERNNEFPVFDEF

Structure (SMILES) | IC50 [1] [µM] | IC50 [2] [µM]
CC(=O)NCCOc1cccc2oc(-c3c(C)[nH]c4c(-c5ccccc5)c(C(F)(F)F)nn4c3=O)nc12 [Compound C1062, N-(2-((2-(5-methyl-7-oxo-3-phenyl-2-(trifluoromethyl)-4,7-dihydropyrazolo[1,5-a]pyrimidin-6-yl)benzo[d]oxazol-4-yl)oxy)ethyl)acetamide] | < 20 | > 100
COc1ccc2oc(-c3c(C)[nH]c4c(-c5ccccc5)c(C(F)(F)F)nn4c3=O)nc2c1 [Compound C1012, 6-(5-methoxybenzo[d]oxazol-2-yl)-5-methyl-3-phenyl-2-(trifluoromethyl)pyrazolo[1,5-a]pyrimidin-7(4H)-one] | > 250 | < 20
COCCOCc1[nH]c2c(-c3ccccc3)c(C#N)nn2c(=O)c1-c1nc2c(OC)cccc2o1 [Compound C1243, 6-(4-methoxybenzo[d]oxazol-2-yl)-5-((2-methoxyethoxy)methyl)-7-oxo-3-phenyl-4,7-dihydropyrazolo[1,5-a]pyrimidine-2-carbonitrile] | < 20 | < 20
COc1ccnc(NC(=O)c2c(C)[nH]c3c(-c4ccccc4)c(C(F)(F)F)nn3c2=O)n1 [Compound A1104, N-(4-methoxypyrimidin-2-yl)-5-methyl-7-oxo-3-phenyl-2-(trifluoromethyl)-4,7-dihydropyrazolo[1,5-a]pyrimidine-6-carboxamide] | < 20 | 20 to 100
Cc1[nH]c2c(-c3ccccc3)c(C(F)(F)F)nn2c(=O)c1-c1nc2c(OCCNS(C)(=O)=O)cccc2o1 [Compound C1066, N-(2-((2-(5-methyl-7-oxo-3-phenyl-2-(trifluoromethyl)-4,7-dihydropyrazolo[1,5-a]pyrimidin-6-yl)benzo[d]oxazol-4-yl)oxy)ethyl)methanesulfonamide] | < 20 | > 100
Cc1[nH]c2c(-c3ccccc3)c(C(F)(F)F)nn2c(=O)c1-c1nnc(-c2nccc(O)n2)o1 [Compound D1078, 6-(5-(4-hydroxypyrimidin-2-yl)-1,3,4-oxadiazol-2-yl)-5-methyl-3-phenyl-2-(trifluoromethyl)pyrazolo[1,5-a]pyrimidin-7(4H)-one] | < 20 | > 100
Cc1[nH]c2c(-c3ccccc3)c(C(F)(F)F)nn2c(=O)c1-c1nnc(C2CCCOC2)o1 (stereo not drawn) [Compound D1015, 5-methyl-3-phenyl-6-(5-(tetrahydro-2H-pyran-3-yl)-1,3,4-oxadiazol-2-yl)-2-(trifluoromethyl)pyrazolo[1,5-a]pyrimidin-7(4H)-one] | 20 to 250 | > 100
Cc1[nH]c2c(-c3ccccc3)c(C#N)nn2c(=O)c1-c1nc2cc(N)ccc2o1 [Compound C1181, 6-(5-aminobenzo[d]oxazol-2-yl)-5-methyl-7-oxo-3-phenyl-4,7-dihydropyrazolo[1,5-a]pyrimidine-2-carbonitrile] | < 20 | > 100
COC(C)(C)c1nnc(-c2c(C)[nH]c3c(-c4ccccc4)c(C(F)(F)F)nn3c2=O)o1 [Compound D1048, 6-(5-(2-methoxypropan-2-yl)-1,3,4-oxadiazol-2-yl)-5-methyl-3-phenyl-2-(trifluoromethyl)pyrazolo[1,5-a]pyrimidin-7(4H)-one] | 20 to 250 | > 100
CC(=O)N1CCCCC1c1nnc(-c2c(C)[nH]c3c(-c4ccccc4)c(C(F)(F)F)nn3c2=O)o1 (stereo not drawn) [Compound D1057, 6-(5-(1-acetylpiperidin-2-yl)-1,3,4-oxadiazol-2-yl)-5-methyl-3-phenyl-2-(trifluoromethyl)pyrazolo[1,5-a]pyrimidin-7(4H)-one] | < 20 | 20 to 100
Cc1[nH]c2c(-c3ccccc3)c(C(F)(F)F)nn2c(=O)c1C(=O)Nc1cnn(C)c1 [Compound A1077, 5-methyl-N-(1-methyl-1H-pyrazol-4-yl)-7-oxo-3-phenyl-2-(trifluoromethyl)-4,7-dihydropyrazolo[1,5-a]pyrimidine-6-carboxamide] | < 20 | > 100
Cc1[nH]c2c(-c3ccccc3)c(C(F)(F)F)nn2c(=O)c1C(=O)Nc1cccc2c1OCCC2 [Compound A1107, N-(chroman-8-yl)-5-methyl-7-oxo-3-phenyl-2-(trifluoromethyl)-4,7-dihydropyrazolo[1,5-a]pyrimidine-6-carboxamide] | < 20 | < 20
Cc1[nH]c2c(-c3ccccc3)c(C(F)(F)F)nn2c(=O)c1-c1nc2c(=O)n(C)ccc2o1 [Compound C1106, 5-methyl-2-(5-methyl-7-oxo-3-phenyl-2-(trifluoromethyl)-4,7-dihydropyrazolo[1,5-a]pyrimidin-6-yl)oxazolo[4,5-c]pyridin-4(5H)-one] | < 20 | 20 to 100
COc1cccc2oc(-c3c(C4=CCC(C(=O)O)CC4)[nH]c4c(-c5ccccc5)c(C(F)(F)F)nn4c3=O)nc12 (stereo not drawn) [Compound C1234, 4-(6-(4-methoxybenzo[d]oxazol-2-yl)-7-oxo-3-phenyl-2-(trifluoromethyl)-4,7-dihydropyrazolo[1,5-a]pyrimidin-5-yl)cyclohex-3-ene-1-carboxylic acid] | < 20 | > 100
Cc1[nH]c2c(-c3ccccc3)c(C(F)(F)F)nn2c(=O)c1C(=O)Nc1cn[nH]c1 [Compound A1068, 5-methyl-7-oxo-3-phenyl-N-(1H-pyrazol-4-yl)-2-(trifluoromethyl)-4,7-dihydropyrazolo[1,5-a]pyrimidine-6-carboxamide] | 20 to 250 | > 100
COc1c(N)ccc2oc(-c3c(C)[nH]c4c(-c5ccccc5)c(C#N)nn4c3=O)nc12 [Compound C1250, 6-(5-amino-4-methoxybenzo[d]oxazol-2-yl)-5-methyl-7-oxo-3-phenyl-4,7-dihydropyrazolo[1,5-a]pyrimidine-2-carbonitrile] | < 20 | > 100
Cc1[nH]c2c(-c3ccccc3)c(C(F)(F)F)nn2c(=O)c1-c1nnc(C2(N)CCCC2)o1 [Compound D1062, 6-(5-(1-aminocyclopentyl)-1,3,4-oxadiazol-2-yl)-5-methyl-3-phenyl-2-(trifluoromethyl)pyrazolo[1,5-a]pyrimidin-7(4H)-one] | < 20 | > 100
Cc1[nH]c2c(-c3ccccc3)c(C(F)(F)F)nn2c(=O)c1C(=O)NS(=O)(=O)Cc1ccccc1 [Compound A1112, N-(benzylsulfonyl)-5-methyl-7-oxo-3-phenyl-2-(trifluoromethyl)-4,7-dihydropyrazolo[1,5-a]pyrimidine-6-carboxamide] | < 20 | 20 to 100
Cc1[nH]c2c(-c3ccccc3)c(C(F)(F)F)nn2c(=O)c1-c1nnc(N2CCCCC2)o1 [Compound D1020, 5-methyl-3-phenyl-6-(5-(piperidin-1-yl)-1,3,4-oxadiazol-2-yl)-2-(trifluoromethyl)pyrazolo[1,5-a]pyrimidin-7(4H)-one] | < 20 | > 100
COc1ccccc1S(=O)(=O)NC(=O)c1c(C)[nH]c2c(-c3ccccc3)c(C(F)(F)F)nn2c1=O [Compound A1121, N-((2-methoxyphenyl)sulfonyl)-5-methyl-7-oxo-3-phenyl-2-(trifluoromethyl)-4,7-dihydropyrazolo[1,5-a]pyrimidine-6-carboxamide] | < 20 | > 100
COc1cccc2nc(-c3c(C)[nH]c4c(-c5ccccc5)c(C(F)(F)F)nn4c3=O)oc12 [Compound C1022, 6-(7-methoxybenzo[d]oxazol-2-yl)-5-methyl-3-phenyl-2-(trifluoromethyl)pyrazolo[1,5-a]pyrimidin-7(4H)-one] | < 20 | 20 to 100
